Measurements from patent publication US20240285571A1, “METHODS OF TREATING BONE INFECTIONS” (MICROBION CORPORATION, priority 2020, published 2024).
Where two headings read alike, the source gives them in different places. Blank lines part the entries; values can stand above or below the compound they belong to.

What was measured:
MDR P. aeruginosa = test: MIC against CF isolates (Example 7, Table 18); assay type: cell-based; conditions: Pseudomonas aeruginosa, Multi-drug resistant
E. coli = test: Broth microdilution MIC (Example 5); assay type: cell-based, Escherichia coli; conditions: Escherichia coli
Protocol: Test and Comparator Agents: The test agents were stored at room temperature until assayed. […] The stock solutions were allowed to stand for at least 1 hr prior to use to auto-sterilize.
TestMedia: Test media were prepared and stored in accordance with guidelines from CLSI (4, 6, 7).
Broth Microdilution MC Testing (Aerobic Bacteria and Yeast): The broth microdilution assay method employed for the susceptibility testing of aerobic bacteria (excluding N. gonorrhoeae which was evaluated by agar dilution) and yeast essentially followed the procedures described by CLSI (3, 4, 7, 8) and employed automated liquid handlers to conduct serial dilutions and liquid transfers. […] These would become the ‘mother plates’ from which ‘daughter’ or test plates would be prepared. The drugs (300 μL at 40× the desired top concentration in the test plates) were dispensed into the appropriate well in Column 1 of the mother plates. The Biomek 2000 was used to make serial two-fold dilutions through Column 11 in the “mother plate”. The wells of Column 12 contained no drug and ultimately served as the organism growth control wells.
The daughter plates were prepared using the Biomek FX which transferred 5 μL of drug solution from each well of a mother plate to the corresponding well of the correct daughter plate in a single step.
A standardized inoculum of each organism was prepared per CLSI methods (3, 7). Isolated colonies of each test isolate were picked from the primary plate and a suspension was prepared to equal a 0.5 McFarland turbidity standard. Standardized suspensions were then diluted […] (1:100 for yeast, 1:20 for bacteria). After dilution, the inoculum suspensions were then transferred to compartments of sterile reservoirs divided by length (Beckman Coulter), and the Biomek 2000 was used to inoculate all plates. Daughter plates were placed on the Biomek 2000 in reverse orientation so that plates were inoculated from low to high drug concentration.
The Biomek 2000 delivered 10 μL of standardized inoculum into each well of the appropriate daughter plate for an additional 1:20 dilution.
Plates were stacked 4 high, covered with a lid on the top plate, placed into plastic bags, and incubated at 35° C. for approximately 24-48 hr for all yeast isolates and 16-24 hr for aerobic bacteria. Plates were viewed from the bottom using a plate viewer. […] MIC endpoints for the test agents and control compounds were read per CLSI criteria (3, 7).

[1] = test system: Pseudomonas aeruginosa biofilms (MR14, AG14); test: Activity against biofilms (Example 7); assay type: cell-based; conditions: MR14, MDR CF-isolate of P. aeruginosa; at 25 ng/mL

- MIC (MDR P. aeruginosa; strain AGR14, P. aeruginosa): > 64 µg/mL
- MIC (MDR P. aeruginosa; strain MR14, P. aeruginosa): > 64 µg/mL
SMILES: NCC[C@H](O)C(=O)N[C@@H]1C[C@H](N)[C@@H](O[C@H]2O[C@H](CN)[C@@H](O)[C@H](O)[C@H]2O)[C@H](O)[C@H]1O[C@H]1O[C@H](CO)[C@@H](O)[C@H](N)[C@H]1O [Amikacin]

SMILES: OCC(S)CS.[Bi] (centres unmarked) [MB-2B, bismuth-2,3-dimercaptopropanol]
- MIC (E. coli; ATCC25922, E. coli MMX 102 (ATCC 25922), QC, read-out: MIC): 2 µg/mL
- MIC (E. coli; ATCCBAA2469, E. coli MMX 5980 (ATCC BAA-2469), NDM-1): 2 µg/mL
- MIC (E. coli; E. coli MMX 8423, ESBL, LevR CAZR GmR, read-out: MIC): 2 µg/mL
- MIC (E. coli; E. coli MMX 8424, ESBL, CAZR, read-out: MIC): 4 µg/mL
- MIC (E. coli; E. coli MMX 8425, ESBL, LevR CAZR GmR, read-out: MIC): 2 µg/mL

SMILES: CC(S)C(C)S.[Bi] (centres unmarked) [MB-6, bismuth-2,3-butanedithiol]
- Reduction in biofilm cell viability [1]: 2 logs
